Reference: PubChem BioAssay AID1963968 (Molecular Pharmacology Branch, DTP, NCI, 2024)

Test system: 945468-187-T-J3-PDC spheroids with HUVEC/MSC, viability
Assay: Anticancer human tumor 945468-187-T-J3-PDC patient-derived rectal carcinoma cell line growth inhibition [PI3K]
Settings: for IC50: curve of first compound; for viability, T/C: stronger effect = lower value
From the text: Combinatorial screen of targeted agents with the PI3K inhibitors inavolisib, alpelisib, duvelisib, and copanlisib in multi-cell type tumor spheroids
A high-throughput screen of multi-cell type tumor spheroids was designed to identify active combinations of targeted small molecules and PI3K pathway inhibitors. Complex spheroids include a stromal component modeled by human endothelial cells (HUVEC) and fibroblasts modeled by human mesenchymal stem cells (MSCs). The concentration ranges selected for each drug and investigational agent were based upon clinically achievable concentrations if the clinical Cmax of the agent was known.
Compounds. The drugs and investigational agents: inavolisib (NSC800729), alpelisib (NSC765974), duvelisib (NSC772469), copanlisib (NSC816437), ipatasertib (NSC767898), afuresertib (NSC778305), talazoparib (NSC767125), sapanisertib (NSC764658), selumetinib (NSC741078), tovorafenib (DAY101, NSC766906), vemurafenib (NSC761431), ravoxertinib (NSC781343), sotorasib (NSC818433), MRTX1133 (NSC 836407), abemaciclib (NSC 768073), palbociclib (NSC758247), venetoclax (NSC 766270), SY5609 (NSC837396), enzalutamide (NSC755605), and darolutamide (NSC825331), were obtained from the National Cancer Institute (NCI) Developmental Therapeutics Program Chemical Repository. The FDA-approved anticancer drug set is available from the NCI Developmental Therapeutics Program. […] The stock solutions were prepared in dimethyl sulfoxide (DMSO, Sigma-Aldrich, St. Louis, MO, cat. D2650) at 800-fold the tested concentration and stored at -70 degrees C prior to their use. All drugs and investigational agents were tested over a range starting from a high concentration at or near the clinical Cmax and decreasing in half-log increments. If the clinical Cmax for an agent had not been determined, the highest concentration tested was 10 microM.
Cell Culture. All cells were maintained in an incubator at 37 degrees C and 5% CO2 with 95% humidity. The PDC lines were cultured according to standard operating procedures established by the NCI PDMR (https://pdmr.cancer.gov/sops/default.htm). All PDCs were thawed and cultured in Matrigel-coated flasks prepared with a working solution of 1X Ham's F-12 nutrient mix, without supplementation (Invitrogen, Waltham, MA, cat. 11765054), 100 U/mL penicillin-streptomycin (Invitrogen, cat. 15140122), and 2.5% Matrigel (Corning Inc., Corning, NY, cat. 354248) for the first three passages. The 354836-022-R-J1-PDC, 475296-252-R-J1-PDC, and 997726-040-R-J2-PDC lines were cultured in 6A media, which includes advanced DMEM/F-12 (Thermo Fisher Scientific, cat. 12634028), 10 mM HEPES (Thermo Fisher Scientific, cat. 15630080), 1X GlutaMAX supplement (Thermo Fisher Scientific, cat. 35050061), 0.1 mg/mL primocin (InvivoGen, San Diego, CA, cat. ant-pm-2), 10% defined fetal bovine serum, heat inactivated (HyClone Laboratories Inc., Logan, UT, cat. SH30070.03HI), 50% L-WRN conditioned media (ATCC, cat. CRL-3276), 1.25 mM N-Acetyl-L-cysteine (Sigma-Aldrich, cat. A9165), 10 mM nicotinamide (Sigma-Aldrich, cat. N0636), 1X B-27 supplement (Thermo Fisher Scientific, cat. 17504044), 1X N-2 supplement (Thermo Fisher Scientific, cat. 17502048), and 10 microM Y-27632 dihydrochloride (Tocris Bioscience, Bristol, United Kingdom, cat. 1254). The 624824-186-R-J2-PDC line was cultured in 6C/Colon 1B media, which includes all 6A media components plus 50 ng/mL human EGF recombinant protein (Thermo Fisher Scientific, cat. PHG0311). […]

[1] = second compound 0.0316 µM, first compound 0.0316 µM
[2] = second compound 0.0316 µM, first compound 0.1 µM
[3] = second compound 0.1 µM, first compound 0.0316 µM
[4] = second compound 0.1 µM, first compound 0.1 µM
[5] = second compound 0.316 µM, first compound 0.0316 µM
[6] = second compound 0.316 µM, first compound 0.1 µM
[7] = second compound 1 µM, first compound 0.0316 µM
[8] = second compound 1 µM, first compound 0.1 µM
[9] = second compound 3.16 µM, first compound 0.0316 µM
[10] = second compound 3.16 µM, first compound 0.1 µM
[11] = second compound 10 µM, first compound 0.0316 µM
[12] = second compound 10 µM, first compound 0.1 µM
[13] = second compound 0.0316 µM, first compound 0.316 µM
[14] = second compound 0.0316 µM, first compound 1 µM
[15] = second compound 0.0316 µM, first compound 3.16 µM
[16] = second compound 0.0316 µM, first compound 10 µM
[17] = second compound 0.1 µM, first compound 0.316 µM
[18] = second compound 0.1 µM, first compound 1 µM
[19] = second compound 0.1 µM, first compound 3.16 µM
[20] = second compound 0.1 µM, first compound 10 µM
[21] = second compound 0.316 µM, first compound 0.316 µM
[22] = second compound 0.316 µM, first compound 1 µM
[23] = second compound 0.316 µM, first compound 3.16 µM
[24] = second compound 0.316 µM, first compound 10 µM
[25] = second compound 1 µM, first compound 0.316 µM
[26] = second compound 1 µM, first compound 1 µM
[27] = second compound 1 µM, first compound 3.16 µM
[28] = second compound 1 µM, first compound 10 µM
[29] = second compound 3.16 µM, first compound 0.316 µM
[30] = second compound 3.16 µM, first compound 1 µM
[31] = second compound 3.16 µM, first compound 3.16 µM
[32] = second compound 3.16 µM, first compound 10 µM
[33] = second compound 10 µM, first compound 0.316 µM
[34] = second compound 10 µM, first compound 1 µM
[35] = second compound 10 µM, first compound 3.16 µM
[36] = second compound 10 µM, first compound 10 µM
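Note: spheroids exposed to agents for 7 days before viability read.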
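Throughout, for viability, T/C: 100% = DMSO vehicle control viability.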

CC(=O)c1c(C)c2cnc(Nc3ccc(N4CCNCC4)cn3)nc2n(C2CCCC2)c1=O + CC(Nc1ncnc2nc[nH]c12)c1cc2cccc(Cl)c2c(=O)n1-c1ccccc1
IC50 (second compound 0.0316 µM): > 0.1 µM | IC50 (second compound 0.1 µM): > 0.1 µM | IC50 (second compound 0.316 µM): > 0.1 µM | IC50 (second compound 1 µM): > 0.1 µM | IC50 (second compound 3.16 µM): > 0.1 µM | IC50 (second compound 10 µM): > 0.1 µM | viability, T/C (second compound 0.0316 µM, first compound 0.000316 µM): 102% | viability, T/C (second compound 0.0316 µM, first compound 0.001 µM): 87.6% | viability, T/C (second compound 0.0316 µM, first compound 0.00316 µM): 106% | viability, T/C (second compound 0.0316 µM, first compound 0.01 µM): 92.5% | viability, T/C [1]: 96.6% | viability, T/C [2]: 92.6% | viability, T/C (second compound 0.1 µM, first compound 0.000316 µM): 91.4% | viability, T/C (second compound 0.1 µM, first compound 0.001 µM): 100% | viability, T/C (second compound 0.1 µM, first compound 0.00316 µM): 87.5% | viability, T/C (second compound 0.1 µM, first compound 0.01 µM): 91.4% | viability, T/C [3]: 99.1% | viability, T/C [4]: 113% | viability, T/C (second compound 0.316 µM, first compound 0.000316 µM): 111% | viability, T/C (second compound 0.316 µM, first compound 0.001 µM): 89.2% | viability, T/C (second compound 0.316 µM, first compound 0.00316 µM): 94.1% | viability, T/C (second compound 0.316 µM, first compound 0.01 µM): 94.5% | viability, T/C [5]: 99.3% | viability, T/C [6]: 98% | viability, T/C (second compound 1 µM, first compound 0.000316 µM): 98.3% | viability, T/C (second compound 1 µM, first compound 0.001 µM): 93.5% | viability, T/C (second compound 1 µM, first compound 0.00316 µM): 86.5% | viability, T/C (second compound 1 µM, first compound 0.01 µM): 93.2% | viability, T/C [7]: 102% | viability, T/C [8]: 89.4% | viability, T/C (second compound 3.16 µM, first compound 0.000316 µM): 95.2% | viability, T/C (second compound 3.16 µM, first compound 0.001 µM): 95% | viability, T/C (second compound 3.16 µM, first compound 0.00316 µM): 99.1% | viability, T/C (second compound 3.16 µM, first compound 0.01 µM): 98.6% | viability, T/C [9]: 105% | viability, T/C [10]: 93.8% | viability, T/C (second compound 10 µM, first compound 0.000316 µM): 106% | viability, T/C (second compound 10 µM, first compound 0.001 µM): 107% | viability, T/C (second compound 10 µM, first compound 0.00316 µM): 106% | viability, T/C (second compound 10 µM, first compound 0.01 µM): 108% | viability, T/C [11]: 106% | viability, T/C [12]: 103%

C=CC(=O)N1CCN(c2nc(=O)n(-c3c(C)ccnc3C(C)C)c3nc(-c4c(O)cccc4F)c(F)cc23)C(C)C1 (stereo unspecified) + CC(Nc1ncnc2nc[nH]c12)c1cc2cccc(Cl)c2c(=O)n1-c1ccccc1
IC50 (second compound 0.0316 µM): > 10 µM | IC50 (second compound 0.1 µM): > 10 µM | IC50 (second compound 0.316 µM): > 10 µM | IC50 (second compound 1 µM): > 10 µM | IC50 (second compound 3.16 µM): > 10 µM | IC50 (second compound 10 µM): > 10 µM | viability, T/C [1]: 91.9% | viability, T/C [2]: 92.9% | viability, T/C [13]: 104% | viability, T/C [14]: 96.4% | viability, T/C [15]: 96.6% | viability, T/C [16]: 98.3% | viability, T/C [3]: 94.7% | viability, T/C [4]: 103% | viability, T/C [17]: 100% | viability, T/C [18]: 92.6% | viability, T/C [19]: 107% | viability, T/C [20]: 95.9% | viability, T/C [5]: 94.8% | viability, T/C [6]: 92.9% | viability, T/C [21]: 88.5% | viability, T/C [22]: 91.6% | viability, T/C [23]: 106% | viability, T/C [24]: 99.3% | viability, T/C [7]: 99.3% | viability, T/C [8]: 105% | viability, T/C [25]: 94.8% | viability, T/C [26]: 94.1% | viability, T/C [27]: 107% | viability, T/C [28]: 95.8% | viability, T/C [9]: 90.5% | viability, T/C [10]: 99.6% | viability, T/C [29]: 101% | viability, T/C [30]: 110% | viability, T/C [31]: 97.2% | viability, T/C [32]: 93.4% | viability, T/C [11]: 104% | viability, T/C [12]: 91.1% | viability, T/C [33]: 97.9% | viability, T/C [34]: 97.6% | viability, T/C [35]: 116% | viability, T/C [36]: 93.9%

CNC(=O)c1ccc(N2C(=S)N(c3ccc(C#N)c(C(F)(F)F)c3)C(=O)C2(C)C)cc1F + Cc1nc(NC(=O)N2CCCC2C(N)=O)sc1-c1ccnc(C(C)(C)C(F)(F)F)c1
IC50 (second compound 0.0316 µM): > 10 µM | IC50 (second compound 0.1 µM): > 10 µM | IC50 (second compound 0.316 µM): > 10 µM | IC50 (second compound 1 µM): > 10 µM | IC50 (second compound 3.16 µM): > 10 µM | IC50 (second compound 10 µM): > 10 µM | viability, T/C [1]: 102% | viability, T/C [2]: 108% | viability, T/C [13]: 96.1% | viability, T/C [14]: 115% | viability, T/C [15]: 107% | viability, T/C [16]: 104% | viability, T/C [3]: 108% | viability, T/C [4]: 106% | viability, T/C [17]: 99.7% | viability, T/C [18]: 105% | viability, T/C [19]: 116% | viability, T/C [20]: 94.8% | viability, T/C [5]: 125% | viability, T/C [6]: 108% | viability, T/C [21]: 97% | viability, T/C [22]: 105% | viability, T/C [23]: 116% | viability, T/C [24]: 108% | viability, T/C [7]: 120% | viability, T/C [8]: 115% | viability, T/C [25]: 97.6% | viability, T/C [26]: 118% | viability, T/C [27]: 105% | viability, T/C [28]: 108% | viability, T/C [9]: 123% | viability, T/C [10]: 110% | viability, T/C [29]: 101% | viability, T/C [30]: 112% | viability, T/C [31]: 108% | viability, T/C [32]: 121% | viability, T/C [11]: 61.1% | viability, T/C [12]: 68.6% | viability, T/C [33]: 59.5% | viability, T/C [34]: 61.2% | viability, T/C [35]: 67.9% | viability, T/C [36]: 88.5%
